We go through 24 molecules from patent US7763602B2, “Pyrrole derivatives as antimycobacterial compounds” (priority 2002, dated 2010).

SMILES strings stand for the structures. ≈ marks a conversion by molar mass, not a printed value. Like-named read-outs stand apart in the source and are kept apart here.

In assay [1] the test system is M. tuberculosis (Resistant strain). It counts as in vivo, mice. The note with it: Table V; for Mean Log10 No. of CFU Lung / Mean Log10 No. of CFU Spleen: 5 day/week for 4 week, treated 01 day post-infection; for Mean Log10 No. of reduction Lung / Mean Log10 No. of reduction Spleen: difference from early controls.
In assay [2] the test system is M. tuberculosis clinical isolates, resistant. The experiment in a line: microbe, parasite or virus in culture. It counts as cell-based, Mycobacterium tuberculosis. The following applies: for MIC: Mycobacterium tuberculosis; for MIC (μg/ml) against Clinical isolates Resistant: Table I, agar dilution.
Setting [3] is: read-out: MIC (μg/ml) against Clinical isolates Resistant.

As to `NNC(=O)c1ccncc1` [Isoniazid, reference compound], in assay [1] (12.5 mg/kg), the “Mean Log10 No. of CFU Lung” value amounted to 5.8 ± 0.4, the “Mean Log10 No. of CFU Spleen” value was found to be 5.79 ± 0.4, the “Mean Log10 No. of reduction Lung” value was −1.33 and the “Mean Log10 No. of reduction Spleen” value is recorded as −1.16. Besides, in assay [1] (25 mg/kg), the “Mean Log10 No. of CFU Lung” value is listed as 5.12 ± 0.6, the “Mean Log10 No. of CFU Spleen” value is listed as 5.43 ± 0.5, the “Mean Log10 No. of reduction Lung” value is listed as −0.65 and the “Mean Log10 No. of reduction Spleen” value is on record as −0.8. In addition, in assay [1] (50 mg/kg), the “Mean Log10 No. of CFU Lung” value was found to be 4.43 ± 0.5, the “Mean Log10 No. of CFU Spleen” value was found to be 4.7 ± 0.31, the “Mean Log10 No. of reduction Lung” value came to 0.04 and the “Mean Log10 No. of reduction Spleen” value was −0.07.

Regarding `Cc1c(CN2CCN(c3cccc(C(F)(F)F)c3)CC2)cc(-c2ccc(Cl)cc2)n1-c1ccc(Cl)cc1` [Compound No. 3, 1-{[1,5-bis(4-chlorophenyl)-2-methylpyrrol-3-yl]methyl}-4-(3-trifluoromethylphenyl)piperazine], the MIC in assay [2] (read-out: MIC (μg/ml) M. tuberculosis Resistant (n = 26)) and in assay [2] (setting [3]) was 0.25 to 0.5 µg/mL (≈ 0.459 to 0.918 µM) each time. Further, the results for the “Mean Log10 No. of CFU Lung” value in assay [1] (12.5 mg/kg), in assay [1] (25 mg/kg) and in assay [1] (50 mg/kg) were 2.98 ± 0.5, 2.3 ± 0.17 and 1.99 ± 0.3, respectively. Also, the “Mean Log10 No. of CFU Spleen” value in assay [1] (12.5 mg/kg) worked out at 2.91 ± 0.4; in assay [1] (25 mg/kg), 2.2 ± 0.31; in assay [1] (50 mg/kg), 1.97 ± 0.4. The “Mean Log10 No. of reduction Lung” value in assay [1] (12.5 mg/kg) came out at 1.49; in assay [1] (25 mg/kg) it was 2.17; in assay [1] (50 mg/kg), 2.48. In addition, the entries for the “Mean Log10 No. of reduction Spleen” value in assay [1] (12.5 mg/kg), in assay [1] (25 mg/kg) and in assay [1] (50 mg/kg) were 1.72, 2.43 and 2.66, respectively.

On to `Cc1c(CN2CCN(c3cccc(C(F)(F)F)c3)CC2)cc(-c2ccccc2)n1-c1ccc(F)cc1F` [compound 53, 1-{[1-(2,4-difluorophenyl)-2-methyl-5-phenylpyrrol-3-yl]methyl}-4-(3-trifluoromethylphenyl)piperazine], for which the MIC in assay [2] (setting [3]) was greater than 16 µg/mL.

On to `COc1ccccc1N1CCN(Cc2cc(-c3ccccc3)n(NC(=O)c3cnccn3)c2C)CC1` [compound 26, N-(3-{[4-(2-methoxyphenyl)piperazinyl]methyl}-2-methyl-5-phenylpyrrolyl) pyrazin-2-ylcarboxamide], for which, in assay [2], the “MIC (μg/ml) against Clinical isolates Resistant” value (“MIC (μg/ml)” for short) was 4.0 to 16.0 µg/mL.

For `Cc1c(CN2CCN(C)CC2)cc(-c2ccccc2)n1NC(=O)c1ccncc1` [compound 16, N-{2-methyl-3-[(4-methylpiperazinyl)methyl]-5-phenylpyrrolyl}-4-pyridylcarboxamide], the “MIC (μg/ml)” value in assay [2] lay in the range of 4.0 to 16.0 µg/mL.

Regarding `Cc1c(CN2CCN(c3ccccn3)CC2)cc(-c2ccccc2)n1-c1ccc(F)cc1F` [compound 54, 1-{[1-(2,4-difluorophenyl)-2-methyl-5-phenylpyrrol-3-yl]methyl}-4-(2-pyridyl) piperazine], the MIC in assay [2] (setting [3]) stood at 4 µg/mL (≈ 9 µM).

In the case of `Cc1cc(CN2CCN(Cc3ccc4c(c3)OCO4)CC2)c(-c2ccccc2)n1NC(=O)c1cnccn1` [compound 35, N-(3-{[4-(2H-benzo[3,4-d]1,3-dioxolan-5-ylmethyl)piperazinyl]methyl}-5-methyl-2-phenylpyrrolyl)pyrazin-2-ylcarboxamide], in assay [2], the “MIC (μg/ml)” value is greater than 16.0 µg/mL.

For `Cc1c(CN2CCN(c3ccccn3)CC2)cc(-c2ccccc2)n1NC(=O)c1cnccn1` [compound 28, N-(3-{[4-(2-pyridyl)piperazinyl]methyl}-2-methyl-5-phenylpyrrolyl)pyrazin-2-ylcarboxamide], the “MIC (μg/ml)” value in assay [2] fell in the range of 4.0 to 16.0 µg/mL.

Consider `Cc1ccc(Cl)cc1N1CCN(Cc2cc(-c3ccc(Cl)cc3)n(-c3ccc(Cl)cc3)c2C)CC1` [compound 10, 1-{[1,5-bis(4-chlorophenyl)-2-methylpyrrol-3-yl]methyl}-4-(5-chloro-2-methylphenyl) piperazine], for which the MIC in assay [2] (setting [3]) was 1 to 4 µg/mL (≈ 1.91 to 7.62 µM).

For `COc1ccccc1N1CCN(Cc2cc(C)n(-c3ccc(F)cc3F)c2-c2ccccc2)CC1` [compound 56, 1-{[1-(2,4-difluorophenyl)-5-methyl-2-phenylpyrrol-3-yl]methyl}-4-(2-methoxyphenyl) piperazine], the MIC in assay [2] (setting [3]) lay in the range of 8 to 16 µg/mL (≈ 16.9 to 33.8 µM).

In the case of `Cc1c(CN2CCN(c3ccccn3)CC2)cc(-c2ccc(Cl)cc2)n1-c1ccc(Cl)cc1` [compound 4, 1-{[1,5-bis(4-chlorophenyl)-2-methylpyrrol-3-yl]methyl}-4-(2-pyridyl) piperazine], the MIC in assay [2] (setting [3]) fell in the range of 0.5 to 4 µg/mL (≈ 1.05 to 8.38 µM).

With `Cc1c(CN2CCN(Cc3ccc4c(c3)OCO4)CC2)cc(-c2ccc(Cl)cc2)n1-c1ccc(Cl)cc1` [Compound No. 8, 5-[(4-{[1,5-bis(4-chlorophenyl)-2-methylpyrrol-3-yl]methyl}piperazinyl)methyl]-2H-benzo[d]1,3-dioxolane], the “MIC (μg/ml)” value in assay [2] fell in the range of 1.0 to 4.0 µg/mL.

Consider `Cc1c(CN2CCN(Cc3ccc4c(c3)OCO4)CC2)cc(-c2ccccc2)n1NC(=O)c1ccncc1` [compound 17, N-(3-{[4-(2H-benzo[d]1,3-dioxolan-5-ylmethyl)piperazinyl]methyl}-2-methyl-5-phenylpyrrolyl)-4-pyridylcarboxamide], for which the “MIC (μg/ml)” value in assay [2] was in the range of 4.0 to 8.0 µg/mL.

As for `Cc1c(CN2CCN(c3cccc(C(F)(F)F)c3)CC2)cc(-c2ccccc2)n1NC(=O)c1ccncc1` [Compound No. 12, N-(3-{[4-(3-trifluoromethylphenyl)piperazinyl]methyl}-2-methyl-5-phenylpyrrolyl)-4-pyridylcarboxamide], the “MIC (μg/ml)” value in assay [2] lay in the range of 0.5 to 1.0 µg/mL.

`Cc1cc(CN2CCN(c3cccc(C(F)(F)F)c3)CC2)c(-c2ccccc2)n1-c1ccc(F)cc1F` [compound 57, 1-{[1-(2,4-difluorophenyl)-5-methyl-2-phenylpyrrol-3-yl]methyl}-4-(3-trifluoromethylphenyl)piperazine]: the MIC in assay [2] (setting [3]) was greater than 16 µg/mL.

As for `Cc1c(CN2CCSCC2)cc(-c2ccc(Cl)cc2)n1NC(=O)c1ccncc1` [compound 89, N-[5-(4-chlorophenyl)-2-methyl-3-(1,4-thiazaperhydroin-4-ylmethyl)pyrrolyl]-4-pyridylcarboxamide], the “MIC (μg/ml)” value in assay [2] was 4.0 to 8.0 µg/mL.

For the molecule `Cc1cc(CN2CCN(c3ccc(F)cc3)CC2)c(-c2ccccc2)n1-c1ccc(F)cc1F` [compound 55, 1-{[1-(2,4-difluorophenyl)-5-methyl-2-phenylpyrrol-3-yl]methyl}-4-(4-fluorophenyl) piperazine], the MIC in assay [2] (setting [3]) was greater than 16 µg/mL.

On to `Cc1cc(CN2CCN(c3cccc(C(F)(F)F)c3)CC2)c(-c2ccc(Cl)cc2)n1-c1cccc2ccccc12` [compound 64, 1-{[2-(4-chlorophenyl)-5-methyl-1-naphthylpyrrol-3-yl]methyl}-4-(3-trifluoromethylphenyl)piperazine], for which, in assay [2], the “MIC (μg/ml)” value was greater than 16.0 µg/mL.

For the molecule `Cc1cc(CN2CCN(c3ccccn3)CC2)c(-c2ccccc2)n1NC(=O)c1cnccn1` [compound 34, N-(3-{[4-(2-pyridyl)piperazinyl]methyl}-5-methyl-2-phenylpyrrolyl)pyrazin-2-ylcarboxamide], in assay [2], the “MIC (μg/ml)” value is greater than 16.0 µg/mL.

For `COc1ccccc1N1CCN(Cc2cc(-c3ccccc3)n(-c3ccc(F)cc3F)c2C)CC1` [compound 52, 1-{[1-(2,4-difluorophenyl)-2-methyl-5-phenylpyrrol-3-yl]methyl}-4-(2-methoxyphenyl)piperazine], the MIC in assay [2] (setting [3]) is 8 to 16 µg/mL (≈ 16.9 to 33.8 µM).

For the molecule `Cc1c(CN2CCN(Cc3ccc4c(c3)OCO4)CC2)cc(-c2ccccc2)n1NC(=O)c1cnccn1` [compound 29, N-(3-{[4-(2H-benzo[d]1,3-dioxolen-5-ylmethyl)piperazinyl]methyl}-2-methyl-5-phenylpyrrolyl)pyrazin-2-ylcarboxamide], the “MIC (μg/ml)” value in assay [2] was greater than 16.0 µg/mL.

In the case of `COc1ccccc1N1CCN(Cc2cc(-c3ccc(Cl)cc3)n(NC(=O)c3cnccn3)c2C)CC1` [compound 38, N-(5-(4-chlorophenyl)-3-{[4-(2-methoxyphenyl)piperazinyl]methyl}-2-methylpyrrolyl)pyrazin-2-ylcarboxamide], in assay [2], the “MIC (μg/ml)” value is greater than 16.0 µg/mL.

For the molecule `Cc1c(CN2CCCC2)cc(-c2ccccc2)n1NC(=O)c1ccncc1` [compound 19, N-[2-methyl-5-phenyl-3-(pyrrolidinylmethyl)pyrrolyl]-4-pyridylcarboxamide], the “MIC (μg/ml)” value in assay [2] was greater than 16.0 µg/mL.

Turning to `Cc1c(CN2CCN(c3ccc(F)cc3)CC2)cc(-c2ccc(Cl)cc2)n1-c1ccc(F)cc1F` [compound 44, 1-{[1-(2,4-difluorophenyl)-5-(4-chlorophenyl)-2-methylpyrrol-3-yl]methyl}-4-(4-fluorophenyl)piperazine], the MIC in assay [2] (setting [3]) is 2 to 4 µg/mL (≈ 4.03 to 8.06 µM).
